Data on 10 compounds can be found in ChEMBL document CHEMBL1201862, “PubChem BioAssay data set” (2004).

Structures are written as SMILES.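 Cultured in 96-well plates, cells were exposed to test compound for 48 hours across five concentrations. Here, GI50 denotes the concentration required for 50% inhibition of growth.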 The source made the active and inactive calls. No stated cut-off is given here; in the data, active = GI50 up to about 1.1 µM and inactive = higher.

Some test systems named below: EKVX; HCT-15; HOP-92; HT-29; IGROV-1; K562; Malme-3M; NCI-H226; NCI-H460; NCI/ADR-RES; OVCAR-4; RPMI-8226; SF-295; SF-539; SK-MEL-2; SK-MEL-5; SK-OV-3; SNB-19; U-251; UACC-257.
Holding throughout (test): NCI tumour cell line growth inhibition, 48 h

On to `C/C(=N/NC(=S)N1CC2CCC(CC2)C1)c1cnccn1`, for which the GI50 in the assay with EKVX was 0.0101 µM (active); in the assay on HCT-15 it was under 0.01 µM; with HOP-92, 0.619 µM (active); with HT-29, < 0.01 µM (active); with IGROV-1, < 0.01 µM (active); in the assay on K562, < 0.01 µM (active). The GI50 with Malme-3M is < 0.01 µM (active); in the assay on NCI-H226 it was < 0.01 µM (active); in the assay with NCI-H460, < 0.0109 µM (active); in the assay on NCI/ADR-RES, < 0.01 µM (active); with OVCAR-4 it was 0.0264 µM (active); in the assay on RPMI-8226, < 0.01 µM (active). In addition, the GI50 with SF-295 was 0.0551 µM (active); in the assay on SF-539 it was 0.109 µM (active); with SK-MEL-2, 0.278 µM (active); in the assay with SK-MEL-5, < 0.0175 µM (active); with SK-OV-3 it was < 0.01 µM (active); in the assay with SNB-19, 0.406 µM (active). Also, the GI50 with U-251 and with UACC-257 was < 0.01 µM (active) each time.
As to `O=c1[nH]nc(-c2ccccc2)n1/N=C/c1ccccc1O`, the GI50 in the assay on EKVX is 67.9 µM (inactive); in the assay on HCT-15, over 100 µM; in the assay on HOP-92, 67.3 µM (inactive); in the assay on HT-29, > 100 µM (inactive); in the assay with IGROV-1, 53 µM (inactive); in the assay on K562, > 100 µM (inactive). For the same compound, the GI50 is 88.1 µM (inactive) in the assay on Malme-3M; > 100 µM (inactive) with NCI-H226; > 100 µM (inactive) with NCI-H460; > 100 µM (inactive) in the assay on NCI/ADR-RES; 28.6 µM (inactive) in the assay on OVCAR-4; > 100 µM (inactive) in the assay with RPMI-8226. For the same compound, the GI50 is 71 µM (inactive) in the assay with SF-295; 78.2 µM (inactive) in the assay on SF-539; > 100 µM (inactive) with SK-MEL-2; 47.8 µM (inactive) in the assay with SK-MEL-5; 22.9 µM (inactive) in the assay on SK-OV-3; 35.5 µM (inactive) in the assay with SNB-19. For the same compound, the GI50 in the assay with U-251 was 41.6 µM (inactive); in the assay with UACC-257, > 100 µM (inactive).
For the compound `C[N+](C)([O-])Cc1cccc(NC(=O)c2ccc(C(=O)Nc3cccc(C[N+](C)(C)[O-])c3)cc2)c1`, the GI50 with EKVX is > 100 µM (inactive); with HCT-15, over 100 µM; in the assay with HOP-92 it was > 100 µM (inactive); with HT-29 it was > 100 µM (inactive); in the assay on IGROV-1, > 100 µM (inactive); with K562, > 100 µM (inactive). For the same compound, the GI50 in the assay with Malme-3M, with NCI-H226, in the assay with NCI-H460, in the assay on NCI/ADR-RES, with OVCAR-4 and in the assay on RPMI-8226 was > 100 µM (inactive) throughout. Moreover, the GI50 in the assay on SF-295, in the assay with SF-539, in the assay on SK-MEL-2, with SK-MEL-5, with SK-OV-3 and with SNB-19 was > 100 µM (inactive) throughout. The GI50 in the assay on U-251 and in the assay on UACC-257 was > 100 µM (inactive) throughout.
For the compound `O=[N+]([O-])c1ccc2oc(=N/c3ccccc3)/c(=N\c3ccccc3)[nH]c2c1`, the GI50 in the assay on EKVX is 70.5 µM (inactive); in the assay with HCT-15, over 100 µM; in the assay on HOP-92 it was 28.2 µM (inactive); in the assay on HT-29, 87.3 µM (inactive); with IGROV-1, 32.1 µM (inactive); in the assay with K562 it was > 100 µM (inactive). The GI50 in the assay with Malme-3M was 87.1 µM (inactive); in the assay on NCI-H226, > 100 µM (inactive); in the assay on NCI-H460, 29.6 µM (inactive); in the assay with NCI/ADR-RES, 51.1 µM (inactive); in the assay with OVCAR-4, 37.9 µM (inactive); in the assay on RPMI-8226, > 100 µM (inactive). The GI50 was 47.9 µM (inactive) with SF-295; 39.7 µM (inactive) with SF-539; 36.7 µM (inactive) with SK-MEL-2; 75.9 µM (inactive) in the assay on SK-MEL-5; 55.7 µM (inactive) in the assay with SK-OV-3; 41 µM (inactive) in the assay on SNB-19. In addition, the GI50 with U-251 was 40.9 µM (inactive); with UACC-257, > 100 µM (inactive).
With `COC(=O)c1c2c(cc3c1CC1(Cc4ccccc4C1=O)C3)CCC2` (stereo not given), the GI50 in the assay on EKVX is 15.9 µM (inactive); with HCT-15, 21.4 µM; with HOP-92, 23 µM (inactive); in the assay with HT-29, 17.1 µM (inactive); in the assay with IGROV-1, 26.6 µM (inactive); in the assay with K562, 8.34 µM (inactive). Besides, the GI50 in the assay with Malme-3M is 20.3 µM (inactive); with NCI-H226 it was 2.58 µM (inactive); with NCI-H460, 29.9 µM (inactive); with NCI/ADR-RES, 19.8 µM (inactive); with OVCAR-4 it was 36.1 µM (inactive); in the assay on RPMI-8226, 18.6 µM (inactive). In addition, the GI50 in the assay on SF-295 was 55.6 µM (inactive); in the assay on SF-539, 71.1 µM (inactive); in the assay with SK-MEL-2 it was 43.7 µM (inactive); with SK-MEL-5, 15.3 µM (inactive); with SK-OV-3 it was > 100 µM (inactive); with SNB-19, > 100 µM (inactive). For the same compound, the GI50 in the assay on U-251 is 56.5 µM (inactive); in the assay with UACC-257, 43.3 µM (inactive).
Take `c1ccc2c(Cc3[nH]c4ccccc4c3Cc3c[nH]c4ccccc34)c[nH]c2c1`: the GI50 was 2.61 µM (inactive) with EKVX; 2.76 µM in the assay with HCT-15; 3.9 µM (inactive) in the assay on HOP-92; 2.52 µM (inactive) in the assay on HT-29; 1.67 µM (inactive) in the assay on IGROV-1; 2.33 µM (inactive) in the assay on K562. The GI50 is 2.05 µM (inactive) in the assay with Malme-3M; 6.08 µM (inactive) with NCI-H226; 1.91 µM (inactive) in the assay on NCI-H460; 2.55 µM (inactive) with NCI/ADR-RES; 3.06 µM (inactive) with OVCAR-4; 2.74 µM (inactive) with RPMI-8226. Further, the GI50 in the assay on SF-295 was 4.3 µM (inactive); in the assay with SF-539, 2.56 µM (inactive); in the assay on SK-MEL-2 it was 2.36 µM (inactive); in the assay on SK-MEL-5, 2.17 µM (inactive); in the assay with SK-OV-3, 3.56 µM (inactive); with SNB-19, 4.93 µM (inactive). Also, the results for the GI50 in the assay with U-251 and with UACC-257 were 2.88 µM (inactive) and 2.71 µM (inactive), respectively.
As for `O=C1/C(=C/c2ccc(Cl)cc2)CSC/C1=C\c1ccc(Cl)cc1`, the GI50 with EKVX was 22.9 µM (inactive); in the assay with HCT-15, 13.9 µM; with HOP-92, 21.2 µM (inactive); with HT-29, 1.97 µM (inactive); in the assay with IGROV-1, 1.82 µM (inactive); in the assay with K562 it was 3.08 µM (inactive). Moreover, the GI50 with Malme-3M is 10.3 µM (inactive); in the assay with NCI-H226 it was 2.2 µM (inactive); in the assay with NCI-H460, 3.32 µM (inactive); in the assay on NCI/ADR-RES, 6.27 µM (inactive); in the assay with OVCAR-4 it was 3.71 µM (inactive); in the assay with RPMI-8226 it was 0.798 µM (active). In addition, the GI50 in the assay on SF-295 is 1.71 µM (inactive); in the assay on SF-539, 2.76 µM (inactive); with SK-MEL-2, 14.5 µM (inactive); with SK-MEL-5 it was 3.45 µM (inactive); in the assay on SK-OV-3, 5.32 µM (inactive); with SNB-19, 4.84 µM (inactive). Besides, the GI50 is 1.67 µM (inactive) in the assay with U-251 and 1.99 µM (inactive) in the assay on UACC-257.
Turning to `O=c1cc(NNc2ccccc2)[nH]c(=S)[nH]1`, the GI50 was 98.9 µM (inactive) with EKVX; 17.8 µM in the assay on HCT-15; 32.6 µM (inactive) in the assay on HOP-92; 37.8 µM (inactive) in the assay on HT-29; 79.4 µM (inactive) in the assay with IGROV-1; 32.4 µM (inactive) in the assay with K562. Further, the GI50 with Malme-3M was 37.7 µM (inactive); in the assay on NCI-H226 it was > 100 µM (inactive); in the assay with NCI-H460, 76.2 µM (inactive); in the assay with NCI/ADR-RES it was 40.6 µM (inactive); in the assay with OVCAR-4, 71 µM (inactive); with RPMI-8226, 10.5 µM (inactive). For the same compound, the GI50 in the assay with SF-295 was > 100 µM (inactive); with SF-539, 50.2 µM (inactive); with SK-MEL-2, 16.6 µM (inactive); with SK-MEL-5, 57 µM (inactive); with SK-OV-3, > 100 µM (inactive); in the assay on SNB-19, > 100 µM (inactive). Besides, the figures for the GI50 in the assay with U-251 and with UACC-257 were 45 µM (inactive) and 47.6 µM (inactive), respectively.
Turning to `CCCC(=O)Nc1cc(/C=C/C(=O)N2C[C@@H]3C[C@]34C2=CC(=O)c2[nH]cc(C)c24)n(C)c1`, the GI50 is 0.644 µM (active) with EKVX; 0.723 µM in the assay with HCT-15; 0.372 µM (active) in the assay with HOP-92; 0.208 µM (active) with HT-29; 0.329 µM (active) in the assay on IGROV-1; 0.0661 µM (active) with K562. Moreover, the GI50 with Malme-3M was 0.0746 µM (active); in the assay on NCI-H226 it was 0.313 µM (active); with NCI-H460, 0.221 µM (active); in the assay on NCI/ADR-RES it was 0.778 µM (active); with OVCAR-4, 0.256 µM (active); in the assay on RPMI-8226, 0.675 µM (active). Moreover, the GI50 in the assay on SF-295 was 0.453 µM (active); with SF-539, 0.166 µM (active); with SK-MEL-2, 0.261 µM (active); in the assay on SK-MEL-5, 0.0748 µM (active); in the assay with SK-OV-3 it was 0.975 µM (active); in the assay on SNB-19 it was 0.745 µM (active). In addition, the figures for the GI50 with U-251 and in the assay with UACC-257 were 0.0702 µM (active) and 0.098 µM (active), respectively.
For the compound `COCC(C#N)NC1CC(OC2CC(O)(C(=O)CO)Cc3c(O)c4c(c(O)c32)C(=O)c2c(OC)cccc2C4=O)OC(C)C1O` (stereo not given), the GI50 is 0.5 µM (active) in the assay on EKVX; 0.802 µM with HCT-15; 0.393 µM (active) in the assay with HOP-92; 0.151 µM (active) in the assay on HT-29; 0.0404 µM (active) in the assay on IGROV-1; 0.0415 µM (active) in the assay on K562. Moreover, the GI50 in the assay with Malme-3M was 0.0344 µM (active); with NCI-H226 it was 0.0278 µM (active); in the assay on NCI-H460, < 0.01 µM (active); in the assay on NCI/ADR-RES, 1.82 µM (inactive); in the assay on OVCAR-4, 0.282 µM (active); in the assay with RPMI-8226 it was 0.0282 µM (active). Further, the GI50 in the assay on SF-295 was 0.0966 µM (active); in the assay with SF-539 it was 0.0415 µM (active); in the assay on SK-MEL-2, 0.136 µM (active); in the assay on SK-MEL-5, 0.0303 µM (active); in the assay with SK-OV-3 it was 0.0869 µM (active); with SNB-19 it was 0.0427 µM (active). Moreover, the GI50 in the assay on U-251 is 0.0286 µM (active); with UACC-257 it was 0.091 µM (active).
